# In US20240124434A1, “ATF6 INHIBITORS AND USES THEREOF” (Altos Labs, Inc., priority 2018, published 2024):
# Like-named read-outs stand apart in the source and are kept apart here.
# How the values were obtained:
# CYP3A4 = CYP3A4 (Homo sapiens (Human), UniProt P08684); assay: CYP inhibition in human liver microsomes
# How it was run: (§1)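 Pooled human liver microsomes with isoform probe substrates: 2 μM midazolam (CYP3A4, 10 min), 50 μM phenacetin (CYP1A2), 5 μM diclofenac (CYP2C9), both 20 min; CYP2C8 run 20 min, desethylamodiaquine formation. Metabolites (1-hydroxymidazolam, acetaminophen, 4-hydroxydiclofenac) quantified by LC/MS/MS after acetonitrile stop.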
# CYP2B6 = CYP2B6 (Homo sapiens (Human), UniProt P20813); assay: CYP inhibition in human liver microsomes
# CYP2C9 = CYP2C9 (Homo sapiens (Human), UniProt P11712); assay: CYP inhibition in human liver microsomes
# How it was run: as §1
# CYP2D6 = CYP2D6 (Homo sapiens (Human), UniProt P10635); assay: CYP inhibition in human liver microsomes
# CYP2C19 = CYP2C19 (Homo sapiens (Human), UniProt P33261); assay: CYP inhibition in human liver microsomes
# CYP1A2 = CYP1A2 (Homo sapiens (Human), UniProt P05177); assay: CYP inhibition in human liver microsomes
# How it was run: as §1
# ATF6 = assay: ERSE ATF6-luciferase reporter assay (thapsigargin-induced ER stress); type: cell-based, human
# in vivo = details: Balb/c, mouse, po, 10 mg/kg
# Protocol: (§3) Tested compounds were formulated at 1 mg/mL as a dosing solution for oral administration in vehicle A: 10% dimethylacetamide (DMAC), 20% propylene glycol, and 40% PEG-400 or vehicle B: 10% Kolliphor® EL and 10% ethanol (EtOH).
# (§4) Animals were acclimated for a minimum period of 4 days upon arrival at the testing facility.
# (§5) At the day of study, mice were weighed, identified by marking the tail with numbers using a non-toxic permanent marker, and designated into ten experimental groups (n=3 per group).
# (§6) Non-dosed mice were used to collect samples of zero time points. […] Blood samples were centrifuged immediately at 9,000 g at 4° C. for 5 minutes and then plasmas were separated. Plasma samples were placed into individually labeled cryovials and stored in a −80° C. freezer until LC/MS/MS bioanalysis.
# (§7) The bioanalysis of plasma samples was conducted with a QTRAP 4500 triple quadrupole mass spectrometer (Applied Biosystems SCIEX) in the positive ion mode and interfaced with an Ekspert Ultra LC100 UPLC System (Eksigent). Calibration standards (0.01 to 10 μM) and QCs (0.02, 0.2 and 2.0 μM) were prepared from naïve mouse plasma in parallel with mouse plasma study samples (60 μL) by precipitation with three volumes of ice cold internal standard solution (acetonitrile containing 20 μM of theophylline). The precipitated samples were centrifuged at 6,100 g for 30 min. Following centrifugation, an aliquot of each supernatant was transferred to an autosampler plate and diluted with two volumes of aqueous mobile phase (0.1% formic acid in water). Samples were injected onto a reverse phase analytical column (YMC Triart C18; 2.0×50 mm; 1.9 μm; YMC CO) and eluted with a gradient of 0.1% formic acid in Acetonitrile. Assayed test compound and internal standards were monitored by a multiple reaction monitoring (MRM) experiment using an Analyst software (v1.6.2, Applied Biosystems SCIEX). Quantitation was conducted using a MultiQuant software (v2.1, Applied Biosystems SCIEX) and the resulting calibration curve was fitted with a linear regression and 1/x weighting. The lower limits of quantitation were 1<LLQ <5 ng/mL.
# [1] = Kinetic solubility (nephelometry); type: physicochemical; details: PBS pH 7.4, 1% DMSO, 1 hour at 37° C., light scattering at 625 nm
# Protocol: Concentration (μM) was then calculated by segmental regression. Amiodarone (#A8423 Aldrich) was used as positive control.
# [2] = In vitro microsomal stability, human liver microsomes; type: in vitro ADME; details: for half-life at 1 μM: human, read-out: T1/2 @ hLM; for half-life at 1 μM / microsomal CLint at 1 μM: pH 7.4; for microsomal CLint at 1 μM: read-out: Clint @ hLM; for Rem. @ hLM (%): remaining fraction after 30 min, 1 mM NADPH
# How it was run: (§2)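 1 μM compound was incubated at 37 °C with 0.5 mg/mL human, mouse or rat liver microsomes and 1 mM NADPH in 100 mM phosphate buffer pH 7.4. Reactions were stopped at 0, 5, 15 and 30 min with cold acetonitrile containing propranolol internal standard.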
# [3] = In vitro microsomal stability, mouse liver microsomes; type: in vitro ADME; details: for half-life at 1 μM: mouse, read-out: T1/2 @ mLM; for half-life at 1 μM / microsomal CLint at 1 μM: pH 7.4; for microsomal CLint at 1 μM: read-out: Clint @ mLM; for Rem. @ mLM (%): remaining fraction after 30 min, 1 mM NADPH
# How it was run: as §2
# [4] = In vitro microsomal stability, rat liver microsomes; type: in vitro ADME; details: for microsomal CLint at 1 μM / half-life at 1 μM: pH 7.4; for microsomal CLint at 1 μM: read-out: Clint @ rLM; for half-life at 1 μM: rat, read-out: T1/2 @ rLM; for Rem. @ rLM (%): remaining fraction after 30 min, 1 mM NADPH
# How it was run: as §2
# [5] = Oral bioavailability and PK parameters in Balb/c mice; details: single oral dose 10 mg/kg; for Vz: volume of distribution
# Protocol: as §3, §4, §5, §6, §7
# [6] = mouse, in vivo, po, 10 mg/kg; for AUCExtr [%] / F [%]: Balb/c
# Protocol: as §3, §4, §5, §6, §7
# [7] = aqueous buffer, kinetic from dmso stock
# [8] = intrinsic clearance, human liver microsomes
# [9] = 1 μM compound, 0.5 mg/mL human liver microsomes
# [10] = intrinsic clearance, mouse liver microsomes
# [11] = 1 μM compound, 0.5 mg/mL mouse liver microsomes
# [12] = intrinsic clearance, rat liver microsomes
# [13] = 1 μM compound, 0.5 mg/mL rat liver microsomes
# CYP1A2, sequence (P05177 whole entry): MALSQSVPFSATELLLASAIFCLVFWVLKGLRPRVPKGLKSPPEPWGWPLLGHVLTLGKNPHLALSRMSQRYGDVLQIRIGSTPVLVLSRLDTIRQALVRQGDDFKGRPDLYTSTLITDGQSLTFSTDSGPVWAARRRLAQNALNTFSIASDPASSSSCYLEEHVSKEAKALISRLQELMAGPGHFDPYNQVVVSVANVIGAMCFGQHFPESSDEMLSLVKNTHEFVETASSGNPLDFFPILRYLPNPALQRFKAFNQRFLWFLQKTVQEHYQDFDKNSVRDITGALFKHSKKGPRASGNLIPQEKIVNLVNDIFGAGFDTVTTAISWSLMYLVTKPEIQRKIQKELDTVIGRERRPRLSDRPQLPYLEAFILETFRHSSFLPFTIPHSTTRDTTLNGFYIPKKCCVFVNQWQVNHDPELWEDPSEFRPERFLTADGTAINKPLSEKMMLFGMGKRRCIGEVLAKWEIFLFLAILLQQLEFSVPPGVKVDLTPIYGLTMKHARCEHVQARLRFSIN
# CYP3A4, sequence (P08684 whole entry, canonical isoform): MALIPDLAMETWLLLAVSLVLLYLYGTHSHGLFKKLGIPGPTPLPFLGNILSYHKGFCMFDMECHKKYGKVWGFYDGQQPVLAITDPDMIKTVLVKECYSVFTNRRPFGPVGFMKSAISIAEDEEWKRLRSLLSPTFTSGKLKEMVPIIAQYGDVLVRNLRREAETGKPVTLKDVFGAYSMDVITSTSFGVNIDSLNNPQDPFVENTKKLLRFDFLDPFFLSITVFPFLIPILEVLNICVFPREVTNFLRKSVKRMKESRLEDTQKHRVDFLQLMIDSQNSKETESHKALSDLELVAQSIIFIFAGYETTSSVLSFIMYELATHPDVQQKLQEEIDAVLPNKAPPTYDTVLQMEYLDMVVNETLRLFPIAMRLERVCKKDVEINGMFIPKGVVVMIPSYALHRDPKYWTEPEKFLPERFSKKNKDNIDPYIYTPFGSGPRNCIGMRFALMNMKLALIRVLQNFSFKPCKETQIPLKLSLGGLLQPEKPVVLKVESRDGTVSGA
# CYP2C9, sequence (P11712 whole entry): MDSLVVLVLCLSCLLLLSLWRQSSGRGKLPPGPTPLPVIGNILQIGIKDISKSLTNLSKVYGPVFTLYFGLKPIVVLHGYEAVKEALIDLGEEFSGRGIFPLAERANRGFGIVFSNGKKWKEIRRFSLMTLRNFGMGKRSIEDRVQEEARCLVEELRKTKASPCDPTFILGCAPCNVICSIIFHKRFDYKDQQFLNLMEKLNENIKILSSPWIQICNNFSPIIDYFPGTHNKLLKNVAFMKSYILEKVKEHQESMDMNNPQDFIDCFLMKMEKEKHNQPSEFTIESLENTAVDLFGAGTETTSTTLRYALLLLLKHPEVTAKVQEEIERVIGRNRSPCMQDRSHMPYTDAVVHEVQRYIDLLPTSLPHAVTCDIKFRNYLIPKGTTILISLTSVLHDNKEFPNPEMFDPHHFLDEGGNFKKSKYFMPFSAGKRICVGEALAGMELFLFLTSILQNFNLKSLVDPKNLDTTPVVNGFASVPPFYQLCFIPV
# CYP2D6, sequence (P10635 whole entry): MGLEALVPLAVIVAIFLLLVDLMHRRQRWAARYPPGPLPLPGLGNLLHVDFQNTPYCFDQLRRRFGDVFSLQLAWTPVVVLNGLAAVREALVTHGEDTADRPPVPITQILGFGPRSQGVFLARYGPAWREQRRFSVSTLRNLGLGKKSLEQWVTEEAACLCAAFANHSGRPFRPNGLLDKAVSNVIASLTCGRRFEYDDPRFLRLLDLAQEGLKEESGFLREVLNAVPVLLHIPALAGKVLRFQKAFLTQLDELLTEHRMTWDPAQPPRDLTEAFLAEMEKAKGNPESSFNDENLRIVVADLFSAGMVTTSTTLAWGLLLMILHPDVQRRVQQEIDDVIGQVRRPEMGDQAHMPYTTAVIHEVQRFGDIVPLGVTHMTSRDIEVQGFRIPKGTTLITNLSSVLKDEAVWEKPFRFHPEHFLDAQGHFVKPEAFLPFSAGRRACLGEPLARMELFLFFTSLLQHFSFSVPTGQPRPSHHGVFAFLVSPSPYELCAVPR
# CYP2B6, sequence (P20813 whole entry): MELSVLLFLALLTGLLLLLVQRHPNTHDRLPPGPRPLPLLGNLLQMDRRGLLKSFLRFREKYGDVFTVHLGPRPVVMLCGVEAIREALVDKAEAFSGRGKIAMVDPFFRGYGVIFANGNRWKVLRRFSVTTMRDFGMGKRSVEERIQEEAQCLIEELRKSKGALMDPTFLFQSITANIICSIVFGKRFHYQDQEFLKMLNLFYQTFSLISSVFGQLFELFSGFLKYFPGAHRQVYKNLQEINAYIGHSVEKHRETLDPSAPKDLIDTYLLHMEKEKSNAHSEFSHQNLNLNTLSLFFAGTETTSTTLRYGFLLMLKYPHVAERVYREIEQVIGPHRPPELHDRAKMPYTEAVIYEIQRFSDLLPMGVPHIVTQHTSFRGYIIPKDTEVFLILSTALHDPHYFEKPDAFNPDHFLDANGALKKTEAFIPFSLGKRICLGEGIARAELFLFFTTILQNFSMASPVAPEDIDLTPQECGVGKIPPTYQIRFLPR
# CYP2C19, sequence (P33261 whole entry): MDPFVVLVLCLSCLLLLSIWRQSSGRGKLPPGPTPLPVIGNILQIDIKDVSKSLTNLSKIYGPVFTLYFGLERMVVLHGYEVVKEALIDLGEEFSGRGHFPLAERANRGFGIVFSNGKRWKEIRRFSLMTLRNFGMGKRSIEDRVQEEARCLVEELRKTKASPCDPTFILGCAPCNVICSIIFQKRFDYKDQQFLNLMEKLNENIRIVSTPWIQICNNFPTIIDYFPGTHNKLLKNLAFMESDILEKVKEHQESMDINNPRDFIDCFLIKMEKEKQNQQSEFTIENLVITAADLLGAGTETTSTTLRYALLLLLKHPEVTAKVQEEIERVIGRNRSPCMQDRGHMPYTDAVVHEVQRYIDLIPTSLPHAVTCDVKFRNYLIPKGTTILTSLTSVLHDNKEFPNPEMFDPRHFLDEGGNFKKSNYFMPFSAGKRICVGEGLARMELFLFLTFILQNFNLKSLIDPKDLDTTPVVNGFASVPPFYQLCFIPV
compound,measurement,setting,value
"CC(c1ccc(C(F)(F)F)cc1C(F)(F)F)n1cc(NC(=O)c2cc(-c3ccccn3)on2)cn1 (single isomer, unassigned) [“Enantiomer A” of Example S5, N-(1-(1-(2,4-bis(trifluoromethyl)phenyl)ethyl)-1H-pyrazol-4-yl)-5-(pyridin-2-yl)isoxazole-3-carboxamide]",IC50,CYP3A4,> 50 µM
same,IC50,CYP2B6,2.49 µM
same,IC50,CYP2C9,3.07 µM
same,IC50,CYP2D6,2.3 µM
same,IC50,CYP2C19,2.31 µM
same,IC50,CYP1A2,> 50 µM
same,IC50,ATF6,< 1 µM
same,Inh. ATF6-Luc @ 1 μM [%],"ATF6; 8 h, 1 µM",+++ (+++ refers to >50% inhibition at 1 μM test compound)
same,AUC(0-inf),in vivo,32400 ng·h/mL
same,AUC(0-t),in vivo,18500 ng·h/mL
same,Cmax,in vivo,4590 ng/mL
same,Tmax,in vivo,60 min
same,half-life,in vivo,413 min
same,solubility kinetic at 1 h,[1]; [7],4.68 µM
same,half-life at 1 μM,[2]; human liver microsomes,99.8 min
same,microsomal CLint at 1 μM,[2]; [8],13.9 µL/min/mg
same,Rem. @ hLM (%),[2]; [9],81.9%
same,half-life at 1 μM,[3]; mouse liver microsomes,34.9 min
same,microsomal CLint at 1 μM,[3]; [10],39.7 µL/min/mg
same,Rem. @ mLM (%),[3]; [11],53.8%
same,microsomal CLint at 1 μM,[4]; [12],11.5 µL/min/mg
same,half-life at 1 μM,[4]; rat liver microsomes,121 min
same,Rem. @ rLM (%),[4]; [13],80%
same,Vz,[5],3.07 L/kg
same,AUCExtr [%],[6],43%
same,F [%],[6],66.3%
same,Last time point for AUClast,[6],8 h
"CC(c1ccc(C(F)(F)F)cc1C(F)(F)F)n1cc(NC(=O)c2cc(-c3ccco3)on2)cn1 (single isomer, unassigned) [“Enantiomer A” of Example S6, N-(1-(1-(2,4-bis(trifluoromethyl)phenyl)ethyl)-1H-pyrazol-4-yl)-5-(furan-2-yl)isoxazole-3-carboxamide]",IC50,CYP3A4,> 50 µM
same,IC50,CYP2B6,4.18 µM
same,IC50,CYP2C9,7.88 µM
same,IC50,CYP2D6,23.7 µM
same,IC50,CYP2C19,3.54 µM
same,IC50,CYP1A2,15.3 µM
same,IC50,ATF6,< 1 µM
same,Inh. ATF6-Luc @ 1 μM [%],"ATF6; 8 h, 1 µM",+++ (+++ refers to >50% inhibition at 1 μM test compound)
same,AUC(0-inf),in vivo,626 ng·h/mL
same,AUC(0-t),in vivo,615 ng·h/mL
same,Cmax,in vivo,579 ng/mL
same,Tmax,in vivo,30 min
same,half-life,in vivo,96 min
same,solubility kinetic at 1 h,[1]; [7],27 µM
same,half-life at 1 μM,[2]; human liver microsomes,24 min
same,microsomal CLint at 1 μM,[2]; [8],57.8 µL/min/mg
same,Rem. @ hLM (%),[2]; [9],41.8%
same,half-life at 1 μM,[3]; mouse liver microsomes,5.97 min
same,microsomal CLint at 1 μM,[3]; [10],232 µL/min/mg
same,Rem. @ mLM (%),[3]; [11],3.05%
same,microsomal CLint at 1 μM,[4]; [12],283 µL/min/mg
same,half-life at 1 μM,[4]; rat liver microsomes,4.89 min
same,Rem. @ rLM (%),[4]; [13],1.4%
same,AUCExtr [%],[6],1.73%
same,F [%],[6],9.6%
same,Last time point for AUClast,[6],8 h
"O=C(Nc1cnn(Cc2ccc(C(F)(F)F)cc2C(F)(F)F)c1)c1cc(-c2ccco2)on1 [Ceapin-A7, reference compound]",IC50,"CYP3A4; read-out: CYP-3A4, human liver microsomes, probe substrate midazolam",> 50 µM
same,IC50,CYP2B6; microsomes,7.48 µM
same,IC50,CYP2C9; microsomes,> 45.3 µM
same,IC50,CYP2D6; microsomes,> 50 µM
same,IC50,CYP1A2; microsomes,> 50 µM
same,Inh. ATF6-Luc @ 1 μM [%],"ATF6; 1 μM test compound, thapsigargin-induced ER stress, U2-OS ATF6 luc reporter cells, 8 hr",+++ (+++ refers to >50% inhibition at 1 μM test compound)
same,IC50,"ATF6; dose-response 30 μM to 1 nM, thapsigargin-induced ER stress, U2-OS ATF6 luc reporter cells, read-out: IC50 ATF6-Luc reporter",< 1 µM
same,solubility kinetic at 1 h,[1],27.7 µM
same,T1/2 @ hLM,"[2]; half-life, 1 μM compound, 0.5 mg/mL human liver microsomes",21.6 min
same,Clint @ hLM,[2]; [8],64.2 µL/min/mg
same,Rem. @ hLM (%),[2]; [9],35.4%
same,T1/2 @ mLM,"[3]; half-life, 1 μM compound, 0.5 mg/mL mouse liver microsomes",9.84 min
same,Clint @ mLM,[3]; [10],141 µL/min/mg
same,Rem. @ mLM (%),[3]; [11],12%
same,T1/2 @ rLM,"[4]; half-life, 1 μM compound, 0.5 mg/mL rat liver microsomes",11.4 min
same,Clint @ rLM,[4]; [12],121 µL/min/mg
same,Rem. @ rLM (%),[4]; [13],14.5%
same,F [%],[5]; Bioavailability,1.04%
same,Last time point for AUClast,[5],6 h
same,CL,[5]; clearance,231 L/h/kg
same,t1/2,[5]; half-life,149 min
same,AUCinf,[5]; plasma,43.3 ng·h/mL
same,AUClast,[5]; plasma,39.1 ng·h/mL
same,Cmax,[5]; plasma,68.7 ng/mL
same,Tmax,[5]; plasma,15 min
same,AUCExtr [%],"[5]; plasma, extrapolated AUC",9.56%
same,Vz,[5],831 L/kg
